Data as given in patent US6281248A, “Composition for treating asthma” (priority 2000, dated 2001).

How the values were obtained:
Metabolism = conditions: in vivo
[1] = system: plasma protein binding of warfarin; assay: Plasma protein binding of warfarin; format: in vitro ADME; conditions: sertraline up to 300 ng/mL, desmethylsertraline up to 200 ng/mL
[2] = Desmethylsertraline pharmacokinetics, day 1 to day 14; format: in vivo
[3] = In vivo pharmacological testing of N-demethylsertraline
[4] = In vitro biochemical testing of N-demethylsertraline
[5] = system: plasma protein binding of propranolol; assay: Plasma protein binding of propranolol; format: in vitro ADME; conditions: sertraline up to 300 ng/mL, desmethylsertraline up to 200 ng/mL
[6] = Plasma clearance in elderly patients
[7] = not given; remark: listed apart in the source
clinical [8] = conditions: human, in vivo, mean half-life
[9] = In vitro protein binding with radiolabeled 3H-sertraline; format: in vitro ADME; conditions: serum, 20 to 500 ng/mL, read-out: binding to serum proteins (converted)
clinical [10] = conditions: human, in vivo
[11] = not given; remark: listed apart in the source
[12] = system: dopamine neuronal reuptake; assay: In vitro neuronal dopamine reuptake; conditions: animals
mouse lymphoma = assay: Mouse lymphoma mutation assay; format: cell-based; conditions: with or without metabolic activation
[13] = Solubility of the present invention; format: physicochemical
[14] = system: beta-adrenergic blocking ability of atenolol; assay: Interaction with atenolol in healthy male subjects; format: in vivo, human; conditions: 100 mg
[15] = Electrocardiograms of patients in double-blind trials; format: in vivo, human; conditions: 774 patients
clinical [16] = conditions: human, in vivo; remark: listed apart in the source
bacteria = assay: Bacterial mutation assay; format: cell-based; conditions: with or without metabolic activation
clinical [17] = conditions: human, plasma
[18] = single dose, with vs without food

For `N[C@H]1CC[C@@H](c2ccc(Cl)c(Cl)c2)c2ccccc21` [N-demethylsertraline], the metabolic pathway (Metabolism) was “oxidative deamination and subsequent reduction, hydroxylation, and glucuronide conjugation”, the “alteration of plasma protein binding of warfarin” value [1] was “did not alter” and the “increase in AUC (0-24 hour) between day 1 and day 14” value ([2]; day 1 to day 14) was 5-9 fold. The “increase in Cmax between day 1 and day 14” value ([2]; day 1 to day 14) was 5-9 fold, the “increase in Cmin between day 1 and day 14” value ([2]; day 1 to day 14) was 5-9 fold and the “time and dose dependence of AUC (0-24 hour), Cmax, and Cmin” value ([2]; in vivo) was “time-related, dose dependent increases”. The “activity in in vivo pharmacological testing relative to sertraline” value [3] was “substantially less active than sertraline”, the “activity in in vitro biochemical testing relative to sertraline” value [4] was “substantially less active than sertraline” and the “alteration of plasma protein binding of propranolol” value [5] was “did not alter”. For the same compound, the “clearance in older males” value ([6]; older males) was “decreased clearance”.

In the case of `CN[C@H]1CC[C@@H](c2ccc(Cl)c(Cl)c2)c2ccccc21.Cl` [sertraline, (1S-cis)-4-(3,4-dichlorophenyl)-1,2,3,4-tetrahydro-N-methyl-1-naphthalenamine hydrochloride], the “time to steady-state plasma levels” value (once-daily dosing, based on half-life) is reported as “approximately one”, the Cmax dose proportionality (single dose, 50 to 200 mg) is reported as “proportional to dose” and the mean half-life ([7]; human, in vivo) is reported as 27.8 h. For the same compound, the gender associated differences ([7]; pediatric patients, males and females) was “No gender associated differences were observed”, the half-life (clinical [8]) was 26.2 h and the fraction unbound [9] was 0.02. The dose excreted at 216 h (clinical [10]) was 12 to 14%, the “unchanged sertraline in the urine” value [11] was “not detectable” and the “effects on dopamine neuronal reuptake” value [12] was “only very weak effects”. For the same compound, the first pass metabolism (Metabolism) was “extensive first pass metabolism”, the metabolic pathway (Metabolism) was “oxidative deamination and subsequent reduction, hydroxylation, and glucuronide conjugation” and the “principal initial pathway of metabolism” value (Metabolism) was “N-demethylation”. For the same compound, the “genotoxic effects, mouse lymphoma mutation assay” value (mouse lymphoma) was “no genotoxic effects”, the solubility in ethanol ([13]; ethanol) was “sparing soluble” and the “solubility in isopropyl alcohol” value ([13]; isopropyl alcohol) was “slightly soluble”. For the same compound, the solubility in water ([13]; water) was “slightly soluble”, the “effect on the beta-adrenergic blocking ability of atenolol” value [14] was “no effect” and the ECG abnormalities [15] was “not associated with the development of significant ECG abnormalities”. The “plasma clearance lower than in younger individuals” value ([6]; elderly, 100 mg/day for 14 days, vs 25 to 32 y.o.) was “approximately 40%”, the half-life (clinical [16]) was 27.2 h and the “genotoxic effects, bacterial mutation assay” value (bacteria) was “no genotoxic effects”. The half-life (clinical [17]) was about 26 h, the AUC with food [18] was “slightly increased” and the “Cmax increase with food” value [18] was 25%.
